One test has as its target T1, KRAS(G13D) (Homo sapiens, UniProt P01116, G13D).
T1 construct: KRAS4B residues 1-174 containing G12C, G12V, G12D, G13D, Q61L, WT; made in house; host or cells: E. coli BL21(DE3) with pBirA
Description: Yeast display binding titration, KRAS(G13D). As to conditions: GTPγS and GDP bound states. As to the method: Nucleotide exchange of RAS. Purified RAS proteins used in binding experiment and crystallization were prepared by diluting stock protein (typically containing 20-250 μM RAS) 25 times with 20 mM Tris-Cl buffer pH 7.5 containing 5 mM EDTA, 0.1 mM DTT and 1 mM final concentration of a nucleotide (GDP or GTPγS). Samples were incubated at 30° C. for 30 minutes. MgCl2 was then added to the sample at a final concentration of 20 mM and the solution was further incubated on ice for at least 5 minutes prior to use.
Monobody development. General procedures for the development of monobodies against purified protein targets have been described previously. After four rounds of phage display library selection using biotinylated KRAS(G12C) at concentrations of 100 nM, 100 nM, 50 nM and 50 nM, the genes encoding monobodies from the enriched phage pool were transferred to a yeast display vector, which was used to construct yeast-display libraries. The yeast display libraries were sorted using a Bio-Rad S3e fluorescence-activated cell sorter or a […] II cell sorter (BD Biosciences). […] Single clones were then screened for selective binding to RAS mutants. The expression of monobodies on the surface of yeast cells were detected using mouse anti-VS and anti-mouse IgG-FITC conjugate. Target binding was detected with neutravidin Dylight650. Yeast cells were analyzed using an iQue flow cytometer (Sartorius). […]

The next test addresses KRAS(G12C) (Homo sapiens, UniProt P01116, G12C). Description: BLI binding to KRAS(G12C). On the set-up: KRAS4B residues 1-174 containing G12C, G12V, G12D, G13D, Q61L, WT; His6 (N, cleaved yes); Avi-tag (N, cleaved yes); made in house; host or cells: E. coli BL21(DE3). The settings on record: nucleotide state GTPγS. An excerpt:
Protein expression and purification. All proteins used for monobody development and binding assays, including RAS constructs (KRAS4B residues 1-174 containing G12C, G12V, G12D, G13D, Q61L, WT, NRAS(WT), and HRAS(WT)), Monobodies, and RAF-1 RBD (residues 51-131) were produced with an N-terminal tag containing His6, Avi-tag for biotinylation and a TEV protease recognition site using the pHBT vector. The proteins were produced in E. coli BL21(DE3). To produce biotinylated proteins, E. coli BL21(DE3) with the pBirA plasmid was used as the host and grown in the presence of 50 μM of biotin. Expressed proteins were purified using Ni-Sepharose columns (GE Healthcare) via gravitational flow, followed by dialysis in Tris buffered saline (TBS, 50 mM Tris-Cl pH7.5 containing 150 mM NaCl) for non-RAS proteins. TBS containing 20 mM MgCl2 and 0.5 mM DTT was used for RAS proteins. Samples were further purified using a Superdex 75 size exclusion column on AKTA Pure systems (GE Healthcare). HRAS(WT) and HRAS(G12C) (residues 1-166) used for crystallization was produced as a fusion protein with His6 and yeast SUMO at the N terminus using an in-house vector described previously. […]
Biolayer interferometry (BLI) analysis. […] BLI signals were analyzed using Octet Data Analysis software (Molecular Devices).
On the technique in general: BLI is a label-free optical method that tracks binding on a fibre tip over time.

One may read the koff as a measure of how fast the partners let go of each other. “VSSVPTKLEVVAATPTSLLISWDAPAVTVFFYVITYGETGHGVGAFQAFKVPGSKSTATISGLKPGVDYTITVYARGYSKQGPYKPSPISINYRT [12VC1]”: the binding result on KRAS(G13D) is on record as “no binding”. This sequence also yielded a koff on KRAS(G12C) of 0.0027 s⁻¹.

The values are drawn from US12049483B2, “Selective and noncovalent inhibitors of oncogenic RAS mutants” (New York University, priority 2020, dated 2024).
